The source of these data is publication PMC6301270 (MedChemComm, 2018).

Assay [1] concerns T.b. brucei (strain 427) bloodstream form parasites. Description: Trypanosoma brucei assay, dose–response (this study). The class given is cell-based. The following applies: for IC50: Trypanosoma brucei.
A further assay deals with HeLa cells. Description: HeLa cell assay (cytotoxicity). The class given is cell-based. The note with it: Homo sapiens.
The test system of another assay is T.b. brucei. On the set-up: method as in https://www.pathogenbox.org/. The note with it: Table 1, kinetoplastid category; ref https://www.pathogenbox.org/; read-out: T. brucei brucei IC50 (μM) Pathogen Box; cited from earlier work.
For another assay, the system named is T. brucei culture. On the set-up: method as in PMID 22148754, PMID 20360736. The following applies: through selective inhibition of T. brucei N-myristoyl transferase; cited from earlier work.
The test system of assay [2] is T.b. brucei (strain 427) bloodstream form parasites. Description: T.b. brucei single concentration screen (10 μM). The following applies: Trypanosoma brucei, read-out: T.b.brucei % viability (10 µM).
In another assay the test system is plasmodial. On the set-up: method as in PMID 22390538. The note with it: screen of the SoftFocus kinase library; cited from earlier work.
The subject of another assay is Leishmaniasis donovani. On the set-up: method as in Duffy et al. The following applies: ref Duffy et al.; cited from earlier work.

SMILES strings stand for the structures. Entries after “also recorded” stand apart in the source; their conditions may differ. Like-named read-outs stand apart in the source and are kept apart here.

One may read the viability as a read-out of living cells in per cent, often relative to untreated cells. On to `Cc1nn(C)c(C)c1NS(=O)(=O)c1c(Cl)cc(-c2ccnc(N3CCNCC3)c2)cc1Cl` [Compound 1, Cc1nn(C)c(C)c1NS(=O)(=O)c2c(Cl)cc(cc2Cl)c3ccnc(c3)N4CCNCC4], for which the IC50 in assay [1] (48 h, read-out: T. brucei brucei IC50 (μM) This study) was 11 µM; in the assay on HeLa cells (HeLa, 48 h, read-out: HeLa IC50 (μM)), 2.8 µM; with T.b. brucei, below 0.13 µM. Also, in the assay with T. brucei culture, the “Inhibition of T. brucei culture” value is “moderate inhibitor”. Moreover, the viability at 10 µM in assay [2] was determined as 2%.
As to `COc1cc(-c2cc(-c3ccc(S(C)(=O)=O)cc3)cnc2N)ccc1O` [Compound 53, COc1cc(ccc1O)c2cc(cnc2N)c3ccc(cc3)S(=O)(=O)C], in assay [1], the “T.b. brucei inhibition in words, this study” value is on record as “sub-micromolar inhibitors; also recorded: sub-micromolar range; also recorded: activity in the nanomolar range”. Besides, the IC50 in assay [1] (Table 2, remaining Pathogen Box, 48 hours at 37 °C, resazurin, read-out: T. brucei brucei IC50 (μM) This study) is 0.33 µM; in assay [1] (pIC50 values (M), read-out: pIC50 (T.b. brucei), this study (converted)), below 1 µM; in the assay on HeLa cells (Table 2, HeLa cells, 48 hours, resazurin, read-out: HeLa IC50) it was above 25 µM. For the same compound, the Anti-plasmodial activity result in the assay on plasmodial was “potent and selective”. In addition, the “Inhibition of Leishmaniasis donovani” value in the assay on Leishmaniasis donovani was “moderate inhibitor”. Besides, the viability at 10 µM in assay [2] came to 1%.
